Experimental data from patent US5486595A, “Tumor necrosis factor inhibitors” (Centecor, Inc., priority 1994, dated 1996).
Where a SMILES comes first, the peptide text is derived from it.

target: T1, human TNFα (Homo sapiens, UniProt P01375); test: p55 Receptor/IgG Fusion Protein Binding Assay (inhibition of TNFα capture by p55-Ig coated plate); details: peptide 1 mM; TNFα 25 ng/ml
T1 construct: purchased Biosource, Camarillo, Calif
T1 sequence (P01375 77-233 limits assumed): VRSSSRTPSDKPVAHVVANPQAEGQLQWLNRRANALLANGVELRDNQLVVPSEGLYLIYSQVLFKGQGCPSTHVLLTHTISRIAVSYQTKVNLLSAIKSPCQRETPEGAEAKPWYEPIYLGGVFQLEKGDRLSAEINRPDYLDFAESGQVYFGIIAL

inhibition of binding of TNFα to p55TNFr-IgG chimeric construct | Compound
65% | SEQ ID NO:34: peptide of the invention that inhibits TNFα; sequence not printed (SDTVADSAEDSTYTQ)
72% | SEQ ID NO:35: peptide of the invention that inhibits TNFα; sequence not printed (VADSAEDSTYTQLWN)
77% | SEQ ID NO:36: peptide of the invention that inhibits TNFα; sequence not printed (SAEDSTYTQLWNWVP)

same assay, conditions: peptide 1 mM; TNFα 25 ng/ml; read-out: inhibition of binding of TNFα to p55TNFr-IgG chimeric construct

inhibition at 1000 µM | Compound
59% | CSCC[C@H](NC(=O)[C@H](CCC(N)=O)NC(=O)[C@H](C)NC(=O)[C@@H](NC(=O)[C@H](CCC(N)=O)NC(=O)[C@H](CC(=O)O)NC(=O)[C@H](Cc1ccc(O)cc1)NC(=O)[C@H](Cc1ccc(O)cc1)NC(=O)[C@@H](N)CCC(=O)O)[C@@H](C)O)C(=O)N[C@@H](C)C(=O)N[C@@H](C)C(=O)N[C@@H](CO)C(=O)N[C@@H](CCCCN)C(=O)N[C@@H](C)C(=O)N[C@@H](CO)C(N)=O [SEQ ID NO:30] (H-EYYDQTAQMAASKAS-NH2)
67% | CC(C)[C@H](NC(=O)[C@@H](NC(=O)[C@H](CC(=O)O)NC(=O)[C@H](CO)NC(=O)[C@@H](NC(=O)[C@H](CCCCN)NC(=O)[C@@H](N)[C@@H](C)O)[C@@H](C)O)[C@@H](C)O)C(=O)N[C@@H](C)C(=O)N[C@@H](CC(=O)O)C(=O)N[C@@H](CO)C(=O)N[C@@H](C)C(=O)N[C@@H](CCC(=O)O)C(=O)N[C@@H](CC(=O)O)C(=O)N[C@@H](CO)C(=O)N[C@H](C(N)=O)[C@@H](C)O [SEQ ID NO:33] (H-TKTSDTVADSAEDST-NH2)
60% | CC(C)C[C@H](NC(=O)[C@H](Cc1c[nH]cn1)NC(=O)[C@@H](NC(=O)[C@H](C)NC(=O)CN)C(C)C)C(=O)N1CCC[C@H]1C(=O)N[C@@H](CCC(N)=O)C(=O)N1CCC[C@H]1C(=O)N[C@H](C(=O)N[C@@H](CO)C(=O)N[C@H](C(=O)N[C@@H](CCCNC(=N)N)C(=O)N[C@@H](CO)C(=O)N[C@@H](CCC(N)=O)C(=O)N[C@@H](Cc1c[nH]cn1)C(N)=O)[C@@H](C)O)C(C)C [SEQ ID NO:55] (H-GAVHLPQPVSTRSQH-NH2)
73% | C[C@H](NC(=O)[C@@H](NC(=O)[C@H](CO)NC(=O)[C@@H]1CCCN1C(=O)[C@H](CCC(=O)O)NC(=O)[C@@H]1CCCN1C(=O)[C@@H](NC(=O)[C@@H]1CCCN1C(=O)[C@H](CCC(N)=O)NC(=O)[C@@H](N)[C@@H](C)O)[C@@H](C)O)[C@@H](C)O)C(=O)N1CCC[C@H]1C(=O)N[C@@H](CO)C(=O)N[C@H](C(=O)N[C@@H](CO)C(=O)N[C@@H](Cc1ccccc1)C(N)=O)[C@@H](C)O [SEQ ID NO:59] (H-TQPTPEPSTAPSTSF-NH2)
73% | CC(C)C[C@H](NC(=O)[C@H](Cc1ccccc1)NC(=O)[C@H](CO)NC(=O)[C@@H](NC(=O)[C@H](CO)NC(=O)[C@@H]1CCCN1C(=O)[C@H](C)NC(=O)[C@@H](NC(=O)[C@H](CO)NC(=O)[C@@H]1CCCN1C(=O)[C@H](CCC(=O)O)NC(=O)[C@@H]1CCCN1C(=O)[C@@H](N)[C@@H](C)O)[C@@H](C)O)[C@@H](C)O)C(=O)N[C@@H](CC(C)C)C(=O)N1CCC[C@H]1C(N)=O [SEQ ID NO:60] (H-TPEPSTAPSTSFLLP-NH2)
72% | CSCC[C@H](NC(=O)[C@@H]1CCCN1C(=O)[C@H](CC(C)C)NC(=O)[C@H](CC(C)C)NC(=O)[C@H](Cc1ccccc1)NC(=O)[C@H](CO)NC(=O)[C@@H](NC(=O)[C@H](CO)NC(=O)[C@@H]1CCCN1C(=O)[C@H](C)NC(=O)[C@@H](NC(=O)[C@H](CO)NC(=O)[C@@H]1CCCN1)[C@@H](C)O)[C@@H](C)O)C(=O)NCC(=O)N1CCC[C@H]1C(N)=O [SEQ ID NO:61] (H-PSTAPSTSFLLPMGP-NH2)
62% | CSCC[C@H](NC(=O)[C@@H]1CCCN1C(=O)[C@H](CC(C)C)NC(=O)[C@H](CC(C)C)NC(=O)[C@H](Cc1ccccc1)NC(=O)[C@H](CO)NC(=O)[C@@H](NC(=O)[C@H](CO)NC(=O)[C@@H]1CCCN1C(=O)[C@H](C)N)[C@@H](C)O)C(=O)NCC(=O)N1CCC[C@H]1C(=O)N[C@@H](CO)C(=O)N1CCC[C@H]1C(=O)N1CCC[C@H]1C(N)=O [SEQ ID NO:62] (H-APSTSFLLPMGPSPP-NH2)

The next lines start with the compound.

Compound | inhibition at 1000 µM
CC(C)[C@H](NC(=O)[C@H](CCCCN)NC(=O)[C@H](C)NC(=O)[C@@H](N)Cc1c[nH]cn1)C(=O)N[C@@H](Cc1ccccc1)C(=O)N[C@@H](C)C(=O)N[C@H](C(=O)N[C@@H](CCCCN)C(=O)N[C@H](C(=O)N[C@@H](CO)C(=O)N[C@@H](CC(=O)O)C(=O)N[C@H](C(=O)N[C@H](C(=O)N[C@@H](C)C(=O)N[C@@H](CC(=O)O)C(N)=O)C(C)C)[C@@H](C)O)[C@@H](C)O)[C@@H](C)O [SEQ ID NO:31] (H-HAKVFATKTSDTVAD-NH2) | 68%
CC(C)[C@H](N)C(=O)N[C@@H](Cc1ccccc1)C(=O)N[C@@H](C)C(=O)N[C@H](C(=O)N[C@@H](CCCCN)C(=O)N[C@H](C(=O)N[C@@H](CO)C(=O)N[C@@H](CC(=O)O)C(=O)N[C@H](C(=O)N[C@H](C(=O)N[C@@H](C)C(=O)N[C@@H](CC(=O)O)C(=O)N[C@@H](CO)C(=O)N[C@@H](C)C(=O)N[C@@H](CCC(=O)O)C(N)=O)C(C)C)[C@@H](C)O)[C@@H](C)O)[C@@H](C)O [SEQ ID NO:32] (H-VFATKTSDTVADSAE-NH2) | 64%
CSCC[C@H](NC(=O)[C@H](CO)NC(=O)[C@H](CCCNC(=N)N)NC(=O)[C@@H](NC(=O)[C@@H]1CCCN1C(=O)[C@H](CO)NC(=O)[C@@H](NC(=O)[C@H](CO)NC(=O)[C@@H](NC(=O)[C@H](C)N)[C@@H](C)O)[C@@H](C)O)[C@@H](C)O)C(=O)N[C@@H](C)C(=O)N1CCC[C@H]1C(=O)NCC(=O)N[C@@H](C)C(=O)N[C@H](C(N)=O)C(C)C [SEQ ID NO:54] (H-ATSTSPTRSMAPGAV-NH2) | 52%
CC(C)C[C@H](NC(=O)[C@@H](N)Cc1c[nH]cn1)C(=O)N1CCC[C@H]1C(=O)N[C@@H](CCC(N)=O)C(=O)N1CCC[C@H]1C(=O)N[C@H](C(=O)N[C@@H](CO)C(=O)N[C@H](C(=O)N[C@@H](CCCNC(=N)N)C(=O)N[C@@H](CO)C(=O)N[C@@H](CCC(N)=O)C(=O)N[C@@H](Cc1c[nH]cn1)C(=O)N[C@H](C(=O)N[C@@H](CCC(N)=O)C(=O)N1CCC[C@H]1C(N)=O)[C@@H](C)O)[C@@H](C)O)C(C)C [SEQ ID NO:56] (H-HLPQPVSTRSQHTQP-NH2) | 67%
C[C@@H](O)[C@H](NC(=O)[C@H](CO)NC(=O)[C@@H]1CCCN1C(=O)[C@H](CCC(=O)O)NC(=O)[C@@H]1CCCN1C(=O)[C@@H](NC(=O)[C@@H]1CCCN1C(=O)[C@H](CCC(N)=O)NC(=O)[C@@H](NC(=O)[C@H](Cc1c[nH]cn1)NC(=O)[C@H](CCC(N)=O)NC(=O)[C@H](CO)NC(=O)[C@H](CCCNC(=N)N)NC(=O)[C@@H](NC(=O)[C@@H](N)CO)[C@@H](C)O)[C@@H](C)O)[C@@H](C)O)C(N)=O [SEQ ID NO:57] (H-STRSQHTQPTPEPST-NH2) | 72%
C[C@H](NC(=O)[C@@H](NC(=O)[C@H](CO)NC(=O)[C@@H]1CCCN1C(=O)[C@H](CCC(=O)O)NC(=O)[C@@H]1CCCN1C(=O)[C@@H](NC(=O)[C@@H]1CCCN1C(=O)[C@H](CCC(N)=O)NC(=O)[C@@H](NC(=O)[C@H](Cc1c[nH]cn1)NC(=O)[C@H](CCC(N)=O)NC(=O)[C@@H](N)CO)[C@@H](C)O)[C@@H](C)O)[C@@H](C)O)C(=O)N1CCC[C@H]1C(=O)N[C@@H](CO)C(N)=O [SEQ ID NO:58] (H-SQHTQPTPEPSTAPS-NH2) | 72%
